Test results: publication PMC6128908, “Potent PDZ-Domain PICK1 Inhibitors that Modulate Amyloid Beta-Mediated Synaptic Dysfunction” (Scientific Reports, 2018)
Values joined by “and” are separate entries in the source; they are usually repeats but may differ in a detail not shown here. Identical values can stand only once. Like-named read-outs stand apart in the source and are kept apart here.

Experiments:
PICK1 = PICK1 (Homo sapiens, UniProt Q9NRD5); test: PICK1 competition (displacement) assay with tracer BIO424; settings: for fold more potent than the unsubstituted quinoline: relative to 1u;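 for all read-outs here: in vitro displacement assay with baculovirus-expressed, truncated dimeric PICK1 missing its final 59 residues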
Procedure: (§1) Fluorescence polarization (FP) and competition binding assays were used to determine PDZ binding affinities and selectivity of compounds as described in Alfonso et al.[20]. Briefly, a fixed concentration (5 nM) of Fluorescein isothiocyanate-labeled peptides comprising the C-terminal amino acids of GluA2 (875–883) and N-methyl-D-aspartate receptor subunit 2B (1474–1482) was used. Binding FP assays were carried out using increasing concentrations of recombinant full-length PICK1, postsynaptic density 95 (PSD95) PDZ 1–2, or Shank3 PDZ, and normalized by subtracting the tracer-only background.
Two recombinant PICK1 constructs were used in this study. […] A truncated, dimeric form of PICK1 lacking the last 59 residues was expressed in baculovirus and purified to homogeneity for use in the in vitro displacement assay. In general, both proteins were purified by Nickel chromatograpy followed by size exclusion chromatography.

GRIP [1] = test: PDZ selectivity counter-screen against GRIP; format: binding; settings: data not shown
Excerpt: Having addressed the potency issue for this tool, we then looked into how selective this compound series was for PICK1 over other closely related PDZ domains. Since the ligand GluA2 recognizes both PICK1 and GRIP we were unsure of whether we could get a selective compound. GRIP (6 PDZ domain-containing protein) is the most closely related PDZ domain to PICK1. PSD95 ([…]) and Shank (a single PDZ domain scaffolding molecule), are also important to counter-screen as they are also located in neurons and could be considered a liability if they were inhibited (Supplemental Fig. 3). […] The selectivity observed for compound 1o was also observed for compound 1z[20].

Shank3 PDZ = molecular target: T1, Shank3 PDZ (Homo sapiens, UniProt Q9BYB0); test: Fluorescence polarization selectivity assay, FITC-labeled GKAP peptide; format: binding; settings: Supplemental Fig. 3D
T1 construct: Human Shank3 PDZ domain (residues 663–757); made in house; host or cells: E. coli
T1 sequence (Q9BYB0 646-740 limits assumed): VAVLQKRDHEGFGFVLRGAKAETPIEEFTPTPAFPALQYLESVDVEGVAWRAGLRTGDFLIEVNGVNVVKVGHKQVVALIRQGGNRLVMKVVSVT
Procedure: as §1

Solubility comparison = format: physicochemical; settings: compared with compound 1z
CA1 pyramidal neurons = test: Long term depression, whole cell recording in hippocampal slices; format: cell-based; settings: 4 µM internally, low frequency stimulation, wild-type mice hippocampal slices
Procedure: Adult mice aged 8 to 9 weeks were decapitated using a guillotine and sliced at the first cervical vertebra. A cut was made through the skin in the middle of the scalp and the skull plate. The skull plate was separated and the brain was removed, and immediately submerged in iced-cold oxygenated Dissection Buffer (211 mM Sucrose, 2.6 mM KCl, 26 mM NaHCO3, 1.25 mM NaH2PO4, 5 mM MgCl2, 0.5 mM CaCl2, and 10 mM glucose) for 2 minutes. The brain was placed on an ice-cold cutting station and the brain cut along the longitudinal cerebral fissure to separate the two hemispheres. Hemispheres were placed in iced-cold oxygenated Dissection Buffer andand cerebellum was pulled away to reveal the hippocampus. The two hemispheres were arranged so that the hippocampi faced each other like two columns and the whole structure was glued onto a mounting plate, and slices were sectioned at 400 µm thickness and transferred to a holding chamber with oxygenated Recovery Buffer (124 mM NaCl, 3 mM KCl, 26 mM NaHCO3, 1.25 mM NaH2PO4, 2 mM MgSO4, 4 mM CaCl2, 10 mM glucose, and 1 mM kynurenic acid). Slices were allowed to recover for 1–1.5 h at room temperature before electrophysiology experiments. Whole-Cell current-clamp measurements on hippocampal CA1 pyramidal neurons were carried out at 32 to 33 °C. The cells were held at −60 mV potential and schaffer collateral fibers were stimulated. […]

PSD95 PDZ 1-2 = molecular target: T2, PSD95 PDZ 1-2 (Homo sapiens, UniProt P78352); settings: cited from earlier work
T2 construct: domains 1–2 in tandem; aminoacids 61–249; 8XHis-TEV; made in house; host or cells: E. coli

GRIP [2] = settings: cited from earlier work
[3] = test system: surface GluA2 in cultured hippocampal neurons; test: Surface GluA2 immunostaining in cultured hippocampal neurons; format: cell-based, mouse
Procedure: Experiments were conducted in accordance with and received approval from the Institutional Animal Care and Use Committees at Biogen Inc. The experiments were carried out in accordance with guidelines laid down by the NIH regarding the care and use of animals for experimental procedures. Primary hippocampal cultures were prepared from embryonic day 18 rodent brains as described previously. Cells were plated on coverslips coated with poly-D-lysine (30 µg/mL) and laminin (2 µg/mL) at a density of 70, 000 cells per well in 12-well plates. […] Embryonic neuronal cultures were prepared from a minimum of three independent pregnant mice on separate days in all of the studies described, and at least 13 neurons were analyzed for each experimental group. […]
Confocal images of immunostained neurons were obtained using a confocal microscope objective (LSM 710, Zeiss) with sequential acquisition settings at a resolution of 1024 × 1024 pixels. […] All analysis and quantifications were carried out using MetaMorph image analysis software (Universal Imaging Corporation). Dendrites from experimental groups were randomly selected and carefully traced, and the average intensity of fluorescence staining was determined for the traced regions. Intensity measurements are expressed in arbitrary units of fluorescence per square area. Acquisition and quantification of images was blinded. […]

[4] = test system: AMPA receptor-dependent calcium influx in hippocampal neurons; test: Calcium mobilization assay (FLIPR), Aβ42-treated neurons; format: cell-based, mouse; settings: neurons treated with Aβ42 for 24 hours, 40 μM s-AMPA stimulation
Procedure: Synthetic Aβ42 hexafluoroisopropanol peptide was prepared to the stock concentration of 200 μM by adding 10 μL dimethylsulfoxide to 100 μg of Aβ42 hexafluoroisopropanol pellet and incubating for 30 min at room temperature with occasional mixing. […] The solution was kept at room temperature for 2 h and then used for experiments.
Mouse hippocampal neurons from wild type E16–18 animals were isolated and cultured for 13 days in vitro in Neurobasal media with B27 Supplement, Glutamax, and penicillin/streptomycin (Invitrogen). Neuron cultures were then treated with Aβ in the absence or presence of PICK1 inhibitorsfor 24 hours. Calcium influx was measured using the FLIPR Calcium 4 Assay (Molecular Devices). The cells were loaded with dye for 1 hour at 37 °C and then stimulated with 40 μM s-AMPA (Sigma). Fluorescent recordings were taken using the FLIPR Tetra (Molecular Devices). Baseline measurements before AMPA stimulation were recorded and fluorescent intensity measurements were taken for roughly 3 minutes during and after stimulation. Calcium influx was calculated as the area under the curve and plotted using PRISM GraphPad software.

PK properties in rats = format: in vivo
Procedure: We next investigated the PK properties of compound 1z in rats to explore if it represented an appropriate in vivo tool compound. […] Several other compounds within this series were tested for brain penetration and were likewise unable to cross the blood brain barrier.

[5] = rat, in vivo, 5 mg/kg, suspension (CMC/Tween)

Sequence of PICK1 (Q9NRD5 1-356): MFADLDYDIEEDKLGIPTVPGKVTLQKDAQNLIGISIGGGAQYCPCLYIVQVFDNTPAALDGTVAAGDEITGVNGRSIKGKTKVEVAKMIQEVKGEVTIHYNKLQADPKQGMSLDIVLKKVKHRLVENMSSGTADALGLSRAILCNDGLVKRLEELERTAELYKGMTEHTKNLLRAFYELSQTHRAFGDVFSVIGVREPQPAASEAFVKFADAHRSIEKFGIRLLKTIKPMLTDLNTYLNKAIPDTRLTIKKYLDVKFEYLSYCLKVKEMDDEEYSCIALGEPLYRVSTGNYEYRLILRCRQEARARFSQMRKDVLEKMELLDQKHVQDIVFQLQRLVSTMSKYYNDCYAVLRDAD
T2 sequence (P78352 61-249): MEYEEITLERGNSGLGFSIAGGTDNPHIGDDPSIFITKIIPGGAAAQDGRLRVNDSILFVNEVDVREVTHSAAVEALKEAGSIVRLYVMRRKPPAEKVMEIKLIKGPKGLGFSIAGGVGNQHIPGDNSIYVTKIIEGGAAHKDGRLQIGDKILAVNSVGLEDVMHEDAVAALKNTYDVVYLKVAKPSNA

Row | Structure (SMILES) | IC50 (PICK1; IC50, BIO424 as tracer) | also measured
1 | CC(C)[C@H](NC(=O)C1(C2CCCCC2)CCN(C(=O)[C@@H]2CCCN2C(=O)OC(C)(C)C)CC1)C(=O)O [1b] | 17400 nM | 
2 | O=C(O)[C@H](CC1CC1)NC(=O)C1(c2ccc(Br)cc2)CCN(Cc2ccccc2C(F)(F)F)CC1 [1o] | 573 nM | selectivity for PICK1 over GRIP (GRIP [1]): selectivity; selectivity for PICK1 over Shank PDZ domain (Shank3 PDZ): selectivity
3 | CC(C)[C@H](NC(=O)C1(c2ccc(C(F)(F)F)cc2)CCN(C(=O)[C@@H]2CCCN2C(=O)OC(C)(C)C)CC1)C(=O)O [1f] | 1560 nM and 1600 nM | 
4 | CC(C)[C@H](NC(=O)C1(N2CCOCC2)CCN(C(=O)[C@@H]2CCCN2C(=O)OC(C)(C)C)CC1)C(=O)O [1c] | ~175000 nM | 
5 | O=C(O)[C@H](CC1CC1)NC(=O)C1(c2ccc(C(F)(F)F)cc2)CCN(c2cc(OC(F)(F)F)cc3cccnc23)CC1 [1ad] | 2300 nM | 
6 | CC(C)(C)OC(=O)N1CCC[C@H]1C(=O)N1CCC(C(=O)N[C@@H](CC2CC2)C(=O)O)(c2ccc(C(F)(F)F)cc2)CC1 [1n] |  | IC50 (PICK1; IC50 (potency)): 130 nM
7 | O=C(O)[C@H](CC1CC1)NC(=O)C1(c2ccc(C(F)(F)F)cc2)CCN(c2ccccc2)CC1 [1s] | 2040 nM | 
8 | CC(C)(C)OC(=O)N1CCC[C@H]1C(=O)N1CCC(C(=O)N[C@@H](CC2CC2)C(=O)O)(c2ccc(Br)cc2)CC1 [1m] | 718 nM | 
9 | COc1cc(N2CCC(C(=O)N[C@@H](CC3CC3)C(=O)O)(c3ccc(C(F)(F)F)cc3)CC2)c2ncccc2c1 [1ac] | 563 nM | 
10 | O=C(O)[C@H](CC1CC1)NC(=O)C1(c2ccc(C(F)(F)F)cc2)CCN(c2cc(Br)cc3cccnc23)CC1 [1aa] | 75 nM | 
11 | C[C@H](NC(=O)C1(c2ccc(Br)cc2)CCN(C(=O)[C@@H]2CCCN2C(=O)OC(C)(C)C)CC1)C(=O)O [1h] | 12100 nM and 12000 nM | 
12 | CC(C)(C)OC(=O)N1CCC[C@H]1C(=O)N1CCC(C(=O)N[C@H](C(=O)O)C2CCCC2)(c2ccc(Br)cc2)CC1 [1l] | 815 nM | 
13 | CC(c1ccccc1C(F)(F)F)N1CCC(C(=O)N[C@@H](CC2CC2)C(=O)O)(c2ccc(Br)cc2)CC1 (some centres unmarked) [1r] | 1230 nM | solubility (Solubility comparison): better than compound 1z; induction of long term depression (LTD) (CA1 pyramidal neurons): LTD was not induced
14 | Cc1cc(N2CCC(C(=O)N[C@@H](CC3CC3)C(=O)O)(c3ccc(C(F)(F)F)cc3)CC2)c2ncccc2c1 [1v] | 348 nM | fold more potent than the unsubstituted quinoline (PICK1): 10 fold
15 | O=C(O)[C@H](CC1CC1)NC(=O)C1(c2ccc(Br)cc2)CCN(Cc2cccc(C(F)(F)F)c2)CC1 [1p] | 2560 nM | 
16 | O=C(O)[C@H](CC1CC1)NC(=O)C1(c2ccc(C(F)(F)F)cc2)CCN(c2cc(Cl)cc3cccnc23)CC1 [1z] |  | selectivity for PICK1 over PSD95 (PSD95 PDZ 1-2): selectivity; selectivity for PICK1 over GRIP (GRIP [2]): selectivity; IC50 (PICK1; IC50 (potency)): 69 nM; fold more potent than the unsubstituted quinoline (PICK1): 67 fold; surface GluA2 levels relative to untreated neurons ([3]; 3 μM, 24 hours, cultured hippocampal neurons): increased; total amount of GluA2 in the cytoplasm and on the cell surface ([3]; inhibitor treatment, data not shown): unchanged; effect on Aβ42-induced increase in intracellular calcium concentration [4]: attenuated; exposure in the brain (brain penetration) (PK properties in rats): no exposure in the brain; AUC (PK properties in rats; [5]): 2920 ng·h/mL; Cmax (PK properties in rats; [5]): 1360 ng/mL
17 | CC(C)[C@H](NC(=O)C1(c2ccc(Br)cc2)CCN(C(=O)[C@@H]2CCCN2C(=O)OC(C)(C)C)CC1)C(=O)O [1e] | 4290 nM | 
18 | CC(C)(C)OC(=O)N1CCC[C@H]1C(=O)N1CCC(C(=O)NC(C)(C)C(=O)O)(c2ccc(Br)cc2)CC1 [1i] | > 175000 nM | 
19 | CCc1cc(N2CCC(C(=O)N[C@@H](CC3CC3)C(=O)O)(c3ccc(C(F)(F)F)cc3)CC2)c2ncccc2c1 [1w] | 269 nM | 
20 | CC(C)(C)OC(=O)N1CCC[C@H]1C(=O)N1CCC(C(=O)N[C@@H](Cc2c[nH]cn2)C(=O)O)(c2ccc(Br)cc2)CC1 [1k] | > 175000 nM | 
21 | O=C(O)[C@H](CC1CC1)NC(=O)C1(c2ccc(C(F)(F)F)cc2)CCN(c2cccc3ccccc23)CC1 [1t] | 8470 nM | 
22 | O=C(O)[C@H](CC1CC1)NC(=O)C1(c2ccc(C(F)(F)F)cc2)CCN(c2cc(F)cc3cccnc23)CC1 [1y] | 626 nM | 
23 | O=C(O)[C@H](CC1CC1)NC(=O)C1(c2ccc(Br)cc2)CCN(Cc2ccc(C(F)(F)F)cc2)CC1 [1q] | 5930 nM | 
24 | O=C(O)[C@H](CC1CC1)NC(=O)C1(c2ccc(C(F)(F)F)cc2)CCN(c2cc(C(F)(F)F)cc3cccnc23)CC1 [1ab] | 104 nM | 
25 | O=C(O)[C@H](CC1CC1)NC(=O)C1(c2ccc(C(F)(F)F)cc2)CCN(c2cccc3cccnc23)CC1 [1u] | 4600 nM | 
26 | CC(C)(C)OC(=O)N1CCC[C@H]1C(=O)N1CCC(C(=O)NCC(=O)O)(c2ccc(Br)cc2)CC1 [1g] | > 175000 nM | 
27 | CC(C)c1cc(N2CCC(C(=O)N[C@@H](CC3CC3)C(=O)O)(c3ccc(C(F)(F)F)cc3)CC2)c2ncccc2c1 [1x] | 508 nM | 
28 | CC(C)(C)OC(=O)N1CCC[C@H]1C(=O)N1CCC(C(=O)N[C@@H](Cc2c[nH]c3ccccc23)C(=O)O)(c2ccc(Br)cc2)CC1 [1j] | > 175000 nM | 
29 | CC(C)[C@H](NC(=O)C1(Cc2ccccc2)CCN(C(=O)[C@@H]2CCCN2C(=O)OC(C)(C)C)CC1)C(=O)O [1d] | 20600 nM | 
30 | CC(C)[C@H](NC(=O)C1(c2ccccc2)CCN(C(=O)[C@@H]2CCCN2C(=O)OC(C)(C)C)CC1)C(=O)O [1a] | 19000 nM and 18900 nM | 
